Several values for one entry are separate records, joined by “and”; a condition that tells them apart may be missing. Identical values can stand only once. Like-named read-outs stand apart in the source and are kept apart here.

The source of these data is paper PMC9079302 (The Journal of Biological Chemistry, 2022).

The target of one data set is T1, P450 3A5 (Homo sapiens, UniProt P20815).
T1 construct: 4-histidine tag (C); made in house; host or cells: Escherichia coli
The data set can be described thus: Type 1 spectral shift equilibrium binding to P450 3A5. As to conditions: for concentration dependence of type 1 spectral shift (shape of binding curve): 3A5 binding isotherm; for ΔAmax/[P450]: one-site binding (Equation 2; tiamulin Equation 3). The procedure: The sample cuvette contained 3A5, and the corresponding buffer was in the reference cuvette. The protein buffer consisted of 50 mM sodium Hepes at pH 7.4, 50 mM potassium acetate at pH 7.4, 0.5 mM EDTA, and 20% glycerol. […] The digital spectra were sampled at 1 nm intervals for 1 s. Excel was used to subtract the initial spectrum from subsequent spectra with volume corrections for substrate addition. […] Initial values for Kds and RSRs for each complex are provided. Ligand-free P450 was assigned an RSR of zero. The output includes predicted values for Kds and RSRs, correlations between parameters, and several statistical values for goodness of fit and variances. In addition, graphs of the fit of the data to the model and residuals are produced in several formats.

For data set [1], the system named is 3A5. Set-up: method as in PMID 27485383. As to conditions: cited from earlier work.
In data set [2] the test system is human microsomal testosterone turnover. Set-up: method as in PMID 33137559. As to conditions: human microsomes; cited from earlier work.
The subject of data set [3] is 3A5. On the set-up: method as in PMID 17200113. As to conditions: type 2 shift, 1 μM P450, biphasic response; cited from earlier work.
The mark [4] stands for this setting: type 1 spectral shift, one-site binding (Equation 2; tiamulin tight-binding Equation 3), [P450] 0.94–2.03 μM, read-out: Kd.

T1 sequence (P20815 with tags, fused parts or gaps limits assumed): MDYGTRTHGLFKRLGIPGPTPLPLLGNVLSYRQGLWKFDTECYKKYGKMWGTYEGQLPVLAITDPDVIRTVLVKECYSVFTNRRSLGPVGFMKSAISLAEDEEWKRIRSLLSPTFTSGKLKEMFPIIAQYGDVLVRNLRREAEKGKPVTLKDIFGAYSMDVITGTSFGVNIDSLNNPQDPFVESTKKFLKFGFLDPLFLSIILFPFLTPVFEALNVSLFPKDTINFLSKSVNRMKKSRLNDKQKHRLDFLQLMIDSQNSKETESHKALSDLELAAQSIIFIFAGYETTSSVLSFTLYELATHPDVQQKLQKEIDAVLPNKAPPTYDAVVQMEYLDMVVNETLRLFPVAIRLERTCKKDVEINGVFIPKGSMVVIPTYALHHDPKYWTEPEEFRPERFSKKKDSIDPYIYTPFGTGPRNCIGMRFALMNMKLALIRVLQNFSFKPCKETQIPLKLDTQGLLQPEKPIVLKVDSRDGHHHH

Regarding `CC[C@]1(C)C[C@@H](OC(=O)CSc2n[nH]c(N)n2)[C@]2(C)[C@H](C)CC[C@]3(CCC(=O)[C@H]32)[C@@H](C)[C@@H]1O` [Azamulin, (3aS,4R,5S,6R,8R,9R,9aR,10R)-6-ethyl-5-hydroxy-4,6,9,10-tetramethyl-1-oxodecahydro-3a,9-propanocyclopenta[8]annulen-8-yl [(5-amino-1H-1,2,4-triazol-3-yl)sulfanyl]acetate], the Kd at P450 3A5 (Dynafit numerical fit, model 4, [P450] 3.73–4.36 μM, 4 replicates, read-out: K1d (binary complex, two-site sequential binding model)) is 0.6 µM and 0.65 µM; at P450 3A5 (Dynafit numerical fit, model 4, [P450] 3.73–4.36 μM, 4 replicates, read-out: K2d (ternary complex, two-site sequential binding model)), 3.4 µM and 3.41 µM; on P450 3A5 (type 1 spectral shift, sigmoidal curve, nominal 4 μM 3A5, n = 4, read-out: Kd (Hill equation fit)), 7.1 ± 0.4 µM. Further, in the data set with 3A5 [1], the “time-dependent inhibition of 3A5” value is “either very slow or nonexistent”.

Turning to `C=C[C@]1(C)C[C@@H](OC(=O)CS[C@@H]2CC[C@@H](N)C[C@H]2O)[C@]2(C)[C@H](C)CC[C@]3(CCC(=O)[C@H]32)[C@@H](C)[C@@H]1O` [Lefamulin], the “concentration dependence of type 1 spectral shift (shape of binding curve)” value on P450 3A5 is reported as “hyperbolic”. Moreover, the “ΔAmax/[P450]” value on P450 3A5 (type 1 spectral shift) amounted to 0.06 ± 0.00. The Kd at P450 3A5 (setting [4]) is 55.1 ± 7.8 µM.

On to `C=C[C@]1(C)C[C@@H](OC(=O)CO)[C@]2(C)[C@H](C)CC[C@]3(CCC(=O)[C@H]32)[C@@H](C)[C@@H]1O` [Pleuromutilin], for which the “concentration dependence of type 1 spectral shift (shape of binding curve)” value on P450 3A5 was “hyperbolic”. Also, the “ΔAmax/[P450]” value at P450 3A5 (type 1 spectral shift) was found to be 0.12 ± 0.02. Further, the Kd at P450 3A5 (setting [4]) stood at 32.7 ± 4.3 µM.

Regarding `C=C[C@]1(C)C[C@@H](OC(=O)CS[C@@H]2C[C@H]3CC[C@@H](C2)N3C)[C@]2(C)[C@H](C)CC[C@]3(CCC(=O)[C@H]32)[C@@H](C)[C@@H]1O` [Retapamulin], the “concentration dependence of type 1 spectral shift (shape of binding curve)” value at P450 3A5 is recorded as “hyperbolic”. The “ΔAmax/[P450]” value at P450 3A5 (type 1 spectral shift) is recorded as 0.09 ± 0.00. Moreover, the Kd on P450 3A5 (setting [4]) was 16.6 ± 2.4 µM.

On to `C=C[C@]1(C)C[C@@H](OC(=O)CSCCN(CC)CC)[C@]2(C)[C@H](C)CC[C@]3(CCC(=O)[C@H]32)[C@@H](C)[C@@H]1O` [Tiamulin], for which, at P450 3A5, the “concentration dependence of type 1 spectral shift (shape of binding curve)” value is given as “hyperbolic”. In addition, on P450 3A5 (type 1 spectral shift), the “ΔAmax/[P450]” value is 0.08 ± 0.00. Besides, the Kd at P450 3A5 (setting [4]) amounted to 6.31 ± 1.02 µM. Further, the IC50 (in general, the concentration that inhibits the measured activity by half) in data set [2] was 1.69 µM.

For `CC(=O)N1CCN(c2ccc(OCC3COC(Cn4ccnc4)(c4ccc(Cl)cc4Cl)O3)cc2)CC1` (stereo not drawn) [ketoconazole], the Hill coefficient (as a rule, the slope factor of the fitted curve) in the data set on 3A5 [3] was 1.4.
